Data published in patent US20240208992A1, “MACROCYCLES AS CFTR MODULATORS” (Idorsia Pharmaceuticals Ltd, priority 2021, published 2024).
pEC50: −log10 of the molar value.

Molecular target: human F508del-CFTR (Homo sapiens, UniProt P13569, DEL508-508)
Experiment: F508del-CFTR cell surface expression (corrector activity), DiscoveRx ß-galactosidase complementation chemiluminescence assay in recombinant U2OS cell line;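 further: U2OS cells co-expressing ProLink-tagged F508del-CFTR and a membrane-anchored enzyme acceptor, where more surface CFTR restores β-galactosidase activity measured by chemiluminescence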
Conditions: U2OS cell line, 16h compound incubation; for pEC50: EC50, F508del-CFTR cell surface expression, geomean values; for Emax: in relation to the Emax of the corrector lumacaftor (=100%), arithmetic mean values

Chain of human F508del-CFTR (P13569 with tags, fused parts or gaps DEL508-508): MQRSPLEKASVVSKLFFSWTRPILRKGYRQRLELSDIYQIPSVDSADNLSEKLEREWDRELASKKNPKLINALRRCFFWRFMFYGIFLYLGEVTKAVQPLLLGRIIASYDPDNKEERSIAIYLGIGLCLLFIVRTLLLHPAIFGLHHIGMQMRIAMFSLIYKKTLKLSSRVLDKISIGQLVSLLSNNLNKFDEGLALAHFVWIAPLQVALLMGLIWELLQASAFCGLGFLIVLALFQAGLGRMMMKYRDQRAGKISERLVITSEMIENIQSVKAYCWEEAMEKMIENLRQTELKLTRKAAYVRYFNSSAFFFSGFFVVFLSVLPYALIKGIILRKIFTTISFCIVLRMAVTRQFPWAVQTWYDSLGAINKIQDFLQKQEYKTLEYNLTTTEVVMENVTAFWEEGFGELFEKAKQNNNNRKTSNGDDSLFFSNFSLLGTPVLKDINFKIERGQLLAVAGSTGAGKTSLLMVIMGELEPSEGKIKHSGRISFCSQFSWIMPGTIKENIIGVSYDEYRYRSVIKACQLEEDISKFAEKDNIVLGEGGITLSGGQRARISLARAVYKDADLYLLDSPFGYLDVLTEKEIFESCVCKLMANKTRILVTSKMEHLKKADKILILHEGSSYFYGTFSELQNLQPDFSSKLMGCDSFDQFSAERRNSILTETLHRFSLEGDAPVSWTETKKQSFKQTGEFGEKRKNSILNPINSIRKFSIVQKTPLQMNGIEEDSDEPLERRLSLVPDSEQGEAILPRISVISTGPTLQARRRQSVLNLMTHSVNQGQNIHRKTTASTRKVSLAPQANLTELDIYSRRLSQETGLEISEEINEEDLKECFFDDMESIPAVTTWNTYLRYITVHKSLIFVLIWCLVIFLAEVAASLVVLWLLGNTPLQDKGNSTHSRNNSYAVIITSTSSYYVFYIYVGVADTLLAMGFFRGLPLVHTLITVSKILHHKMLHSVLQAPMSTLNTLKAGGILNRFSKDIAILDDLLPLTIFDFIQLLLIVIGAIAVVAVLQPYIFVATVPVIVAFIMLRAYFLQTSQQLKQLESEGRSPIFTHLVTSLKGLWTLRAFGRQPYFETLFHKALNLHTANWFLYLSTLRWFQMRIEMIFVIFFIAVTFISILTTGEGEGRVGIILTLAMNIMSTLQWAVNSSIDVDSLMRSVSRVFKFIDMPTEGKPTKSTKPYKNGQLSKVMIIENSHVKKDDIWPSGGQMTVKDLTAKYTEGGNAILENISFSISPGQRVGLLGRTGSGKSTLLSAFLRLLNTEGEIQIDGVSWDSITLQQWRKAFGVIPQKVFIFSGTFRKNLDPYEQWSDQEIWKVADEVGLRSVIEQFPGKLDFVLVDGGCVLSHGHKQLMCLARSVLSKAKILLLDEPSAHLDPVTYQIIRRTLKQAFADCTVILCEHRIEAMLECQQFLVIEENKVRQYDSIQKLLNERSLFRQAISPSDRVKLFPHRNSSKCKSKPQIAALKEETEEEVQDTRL

Structure (SMILES)	pEC50	Emax (U2OS) [%]	Emax [%]
CC(C)C[C@H]1C(=O)N2CCCC[C@@H]2C(=O)N[C@H](Cc2ccccc2)COc2cnc3ccccc3c2C(=O)N[C@H](C(=O)NCCc2nc(-c3ccccc3)no2)CC(=O)N1C [Example 76, (9S,13S,19aR,22R)-22-benzyl-13-isobutyl-12-methyl-7,11,14,20-tetraoxo-N-(2-(3-phenyl-1,2,4-oxadiazol-5-yl)ethyl)-7,8,9,10,11,12,13,14,17,18,19,19a,20,21,22,23-hexadecahydro-16H-pyrido[2′,1′:6,7][1]oxa[4,7,10,14]tetraazacycloheptadecino[17,16-c]quinoline-9-carboxamide]	6.71	283	
CC(C)C[C@H]1C(=O)N2CCCC[C@@H]2C(=O)N[C@H](Cc2ccccc2)COc2cnc3ccccc3c2C(=O)N[C@H](C(=O)NCCc2ccccc2)CC(=O)N1C [Example 77, (9S,13S,19aR,22R)-22-benzyl-13-isobutyl-12-methyl-7,11,14,20-tetraoxo-N-phenethyl-7,8,9,10,11,12,13,14,17,18,19,19a,20,21,22,23-hexadecahydro-16H-pyrido[2′,1′:6,7][1]oxa[4,7,10,14]tetraazacycloheptadecino[17,16-c]quinoline-9-carboxamide]	6.64	237	
Cc1nc(CCNC(=O)[C@@H]2CC(=O)N(C)[C@@H](CC(C)C)C(=O)N3CCCC[C@@H]3C(=O)N[C@H](Cc3ccccc3)COc3cnc4ccccc4c3C(=O)N2)no1 [Example 78, (9S,13S,19aR,22R)-22-benzyl-13-isobutyl-12-methyl-N-(2-(5-methyl-1,2,4-oxadiazol-3-yl)ethyl)-7,11,14,20-tetraoxo-7,8,9,10,11,12,13,14,17,18,19,19a,20,21,22,23-hexadecahydro-16H-pyrido[2′,1′:6,7][1]oxa[4,7,10,14]tetraazacycloheptadecino[17,16-c]quinoline-9-carboxamide]	6.26	277	
CCc1nc(CCNC(=O)[C@@H]2CC(=O)N(C)[C@@H](CC(C)C)C(=O)N3CCCC[C@@H]3C(=O)N[C@H](Cc3ccccc3)COc3cnc4ccccc4c3C(=O)N2)no1 [Example 79, (9S,13S,19aR,22R)-22-benzyl-N-(2-(5-ethyl-1,2,4-oxadiazol-3-yl)ethyl)-13-isobutyl-12-methyl-7,11,14,20-tetraoxo-7,8,9,10,11,12,13,14,17,18,19,19a,20,21,22,23-hexadecahydro-16H-pyrido[2′,1′:6,7][1]oxa[4,7,10,14]tetraazacycloheptadecino[17,16-c]quinoline-9-carboxamide]	6.49	296	
CC(C)C[C@H]1C(=O)N2CCCC[C@@H]2C(=O)N[C@H](Cc2ccccc2)COc2cnc3ccccc3c2C(=O)N[C@H](C(=O)NCCc2noc(C3CC3)n2)CC(=O)N1C [Example 80, (9S,13S,19aR,22R)-22-benzyl-N-(2-(5-cyclopropyl-1,2,4-oxadiazol-3-yl)ethyl)-13-isobutyl-12-methyl-7,11,14,20-tetraoxo-7,8,9,10,11,12,13,14,17,18,19,19a,20,21,22,23-hexadecahydro-16H-pyrido[2′,1′:6,7][1]oxa[4,7,10,14]tetraazacycloheptadecino[17,16-c]quinoline-9-carboxamide]	6.77	308	
COc1cccc(CCNC(=O)[C@@H]2CC(=O)N(C)[C@@H](CC(C)C)C(=O)N3CCCC[C@@H]3C(=O)N[C@H](Cc3ccccc3)COc3cnc4ccccc4c3C(=O)N2)c1OC [Example 81, (9S,13S,19aR,22R)-22-benzyl-N-(2,3-dimethoxyphenethyl)-13-isobutyl-12-methyl-7,11,14,20-tetraoxo-7,8,9,10,11,12,13,14,17,18,19,19a,20,21,22,23-hexadecahydro-16H-pyrido[2′,11:6,7][1]oxa[4,7,10,14]tetraazacycloheptadecino[17,16-c]quinoline-9-carboxamide]	6.63	232	
Cc1oncc1CCNC(=O)[C@@H]1CC(=O)N(C)[C@@H](CC(C)C)C(=O)N2CCCC[C@@H]2C(=O)N[C@H](Cc2ccccc2)COc2cnc3ccccc3c2C(=O)N1 [Example 82, (9S,13S,19aR,22R)-22-benzyl-13-isobutyl-12-methyl-N-(2-(5-methylisoxazol-4-yl)ethyl)-7,11,14,20-tetraoxo-7,8,9,10,11,12,13,14,17,18,19,19a,20,21,22,23-hexadecahydro-16H-pyrido[2′,1′:6,7][1]oxa[4,7,10,14]tetraazacycloheptadecino[17,16-c]quinoline-9-carboxamide]	6.22	246	
CC(C)C[C@H]1C(=O)N2CCCC[C@@H]2C(=O)N[C@H](Cc2ccccc2)COc2cnc3ccccc3c2C(=O)N[C@H](C(=O)NCCc2cnn(C)c2)CC(=O)N1C [Example 83, (9S,13S,19aR,22R)-22-benzyl-13-isobutyl-12-methyl-N-(2-(1-methyl-1H-pyrazol-4-yl)ethyl)-7,11,14,20-tetraoxo-7,8,9,10,11,12,13,14,17,18,19,19a,20,21,22,23-hexadecahydro-16H-pyrido[2′,11:6,7][1]oxa[4,7,10,14]tetraazacycloheptadecino[17,16-c]quinoline-9-carboxamide]	6.14	309	
COc1ccc(CCNC(=O)[C@@H]2CC(=O)N(C)[C@@H](CC(C)C)C(=O)N3CCCC[C@@H]3C(=O)N[C@H](Cc3ccccc3)COc3cnc4ccccc4c3C(=O)N2)cc1 [Example 84, (9S,13S,19aR,22R)-22-benzyl-13-isobutyl-N-(4-methoxyphenethyl)-12-methyl-7,11,14,20-tetraoxo-7,8,9,10,11,12,13,14,17,18,19,19a,20,21,22,23-hexadecahydro-16H-pyrido[2′,1′:6,7][1]oxa[4,7,10,14]tetraazacycloheptadecino[17,16-c]quinoline-9-carboxamide]	6.56	299	
CC(C)C[C@H]1C(=O)N2CCCC[C@@H]2C(=O)N[C@H](Cc2ccccc2)COc2cnc3ccccc3c2C(=O)N[C@H](C(=O)NCCc2noc(C(C)(C)C)n2)CC(=O)N1C [Example 85, (9S,13S,19aR,22R)-22-benzyl-N-(2-(5-(tert-butyl)-1,2,4-oxadiazol-3-yl)ethyl)-13-isobutyl-12-methyl-7,11,14,20-tetraoxo-7,8,9,10,11,12,13,14,17,18,19,19a,20,21,22,23-hexadecahydro-16H-pyrido[2′,1′:6,7][1]oxa[4,7,10,14]tetraazacycloheptadecino[17,16-c]quinoline-9-carboxamide]	6.59	244	
Cc1cc(C)cc(-c2noc(CCNC(=O)[C@@H]3CC(=O)N(C)[C@@H](CC(C)C)C(=O)N4CCCC[C@@H]4C(=O)N[C@H](Cc4ccccc4)COc4cnc5ccccc5c4C(=O)N3)n2)c1 [Example 86, (9S,13S,19aR,22R)-22-benzyl-N-(2-(3-(3,5-dimethylphenyl)-1,2,4-oxadiazol-5-yl)ethyl)-13-isobutyl-12-methyl-7,11,14,20-tetraoxo-7,8,9,10,11,12,13,14,17,18,19,19a,20,21,22,23-hexadecahydro-16H-pyrido[2′,1′:6,7][1]oxa[4,7,10,14]tetraazacycloheptadecino[17,16-c]quinoline-9-carboxamide]	6.50	157	
CC(C)C[C@H]1C(=O)N2CCCC[C@@H]2C(=O)N[C@H](Cc2ccccc2)COc2cnc3ccccc3c2C(=O)N[C@H](C(=O)NCCc2nc(-c3ccccc3OC(F)(F)F)no2)CC(=O)N1C [Example 87, (9S,13S,19aR,22R)-22-benzyl-13-isobutyl-12-methyl-7,11,14,20-tetraoxo-N-(2-(3-(2-(trifluoromethoxy)phenyl)-1,2,4-oxadiazol-5-yl)ethyl)-7,8,9,10,11,12,13,14,17,18,19,19a,20,21,22,23-hexadecahydro-16H-pyrido[2′,1′:6,7][1]oxa[4,7,10,14]tetraazacycloheptadecino[17,16-c]quinoline-9-carboxamide]	6.79	190	
CC(C)C[C@H]1C(=O)N2CCCC[C@@H]2C(=O)N[C@H](Cc2ccccc2)COc2cnc3ccccc3c2C(=O)N[C@H](C(=O)NCCc2nnc(-c3ccccc3OC(F)(F)F)[nH]2)CC(=O)N1C [Example 88, (9S,13S,19aR,22R)-22-benzyl-13-isobutyl-12-methyl-7,11,14,20-tetraoxo-N-(2-(5-(2-(trifluoromethoxy)phenyl)-4H-1,2,4-triazol-3-yl)ethyl)-7,8,9,10,11,12,13,14,17,18,19,19a,20,21,22,23-hexadecahydro-16H-pyrido[2′,1′:6,7][1]oxa[4,7,10,14]tetraazacycloheptadecino[17,16-c]quinoline-9-carboxamide]	6.64	112	
CC(C)C[C@H]1C(=O)N2CCCC[C@@H]2C(=O)N[C@H](Cc2ccccc2)COc2cnc3ccccc3c2C(=O)N[C@H](C(=O)NCCc2cc(C(C)(C)C)on2)CC(=O)N1C [Example 89, (9S,13S,19aR,22R)-22-benzyl-N-(2-(5-(tert-butyl)isoxazol-3-yl)ethyl)-13-isobutyl-12-methyl-7,11,14,20-tetraoxo-7,8,9,10,11,12,13,14,17,18,19,19a,20,21,22,23-hexadecahydro-16H-pyrido[2′,1′:6,7][1]oxa[4,7,10,14]tetraazacycloheptadecino[17,16-c]quinoline-9-carboxamide]	6.88		262
CC(C)C[C@H]1C(=O)N2CCCC[C@@H]2C(=O)N[C@H](Cc2ccccc2)COc2cnc3ccccc3c2C(=O)N[C@H](C(=O)NCCc2cc(C(C)(C)C)on2)CC(=O)N1C [Example 90, (9S,13S,19aS,22R)-22-benzyl-N-(2-(5-(tert-butyl)isoxazol-3-yl)ethyl)-13-isobutyl-12-methyl-7,11,14,20-tetraoxo-7,8,9,10,11,12,13,14,17,18,19,19a,20,21,22,23-hexadecahydro-16H-pyrido[2′,1′:6,7][1]oxa[4,7,10,14]tetraazacycloheptadecino[17,16-c]quinoline-9-carboxamide]	6.44		129
